Species: Rattus norvegicus
Test: DrugMatrix - Regimen: Daily Repeat
Format: toxicity, organism-based, Sprague-Dawley
Parameters: regimen Daily Repeat, gender Male, age 6-8 weeks
Details: in vivo, iv, vehicle 100 % SALINE; for ABSOLUTE MONOCYTE / ABSOLUTE SEGMENTED NEUTROPHIL / BASOPHIL / EOSINOPHIL / ERYTHROCYTE COUNT / HEMATOCRIT / HEMOGLOBIN / LEUKOCYTE COUNT / LYMPHOCYTE / MEAN CORPUSCULAR HEMOGLOBIN / MEAN CORPUSCULAR HEMOGLOBIN CONCENTRATION / MEAN CORPUSCULAR VOLUME / MONOCYTE / NEUTROPHIL / NUCLEATED RED BLOOD CELLS / PLATELET COUNT / ABSOLUTE BASOPHIL / ABSOLUTE EOSINOPHIL / ABSOLUTE LYMPHOCYTE: tissue Blood; for ALANINE AMINOTRANSFERASE / ALBUMIN / ALKALINE PHOSPHATASE / ASPARTATE AMINOTRANSFERASE / BLOOD UREA NITROGEN / CARBON DIOXIDE / CHLORIDE / CHOLESTEROL / CREATINE PHOSPHOKINASE / CREATININE / GLUCOSE / LACTATE DEHYDROGENASE / LIPASE / PHOSPHORUS / POTASSIUM / SODIUM / TOTAL BILIRUBIN / TOTAL PROTEIN / URIC ACID: tissue Plasma
[1] = 20 mg/kg, 120 h, dose level Low, time 5 day
[2] = 82 mg/kg, 72 h, dose level High, time 3 day
[3] = 82 mg/kg, 120 h, dose level High, time 5 day

## NCC[C@H](O)C(=O)N[C@@H]1C[C@H](N)[C@@H](O[C@H]2O[C@H](CN)[C@@H](O)[C@H](O)[C@H]2O)[C@H](O)[C@H]1O[C@H]1O[C@H](CO)[C@@H](O)[C@H](N)[C@H]1O [AMIKACIN]
[1]
  ABSOLUTE MONOCYTE: 11 CELLS/uL
  ABSOLUTE SEGMENTED NEUTROPHIL: 480 CELLS/uL
  BASOPHIL: 0%
  EOSINOPHIL: 0%
  ERYTHROCYTE COUNT: 5.48 x10E6/uL
  HEMATOCRIT: 33%
  HEMOGLOBIN: 12.63 G/DL
  LEUKOCYTE COUNT: 3.67 x10E3/uL
  LYMPHOCYTE: 86.67%
  MEAN CORPUSCULAR HEMOGLOBIN: 23 pg
  MEAN CORPUSCULAR HEMOGLOBIN CONCENTRATION: 38.3 G/DL
  MEAN CORPUSCULAR VOLUME: 60.1 fL
  MONOCYTE: 0.33%
  NEUTROPHIL: 13%
  NUCLEATED RED BLOOD CELLS: 0 /100WBC
  PLATELET COUNT: 622.33 x10E3/uL
  ALANINE AMINOTRANSFERASE: 72.67 u/L
  ALBUMIN: 3.63 G/DL
  ALKALINE PHOSPHATASE: 187.33 u/L
  ASPARTATE AMINOTRANSFERASE: 329.33 u/L
  BLOOD UREA NITROGEN: 16 mg/dL
  CARBON DIOXIDE: 32.67 mmol/L
  CHLORIDE: 98.67 MEQ/L
  CHOLESTEROL: 81.33 mg/dL
  CREATINE PHOSPHOKINASE: 388 u/L
  CREATININE: 0.13 mg/dL
  GLUCOSE: 162.67 mg/dL
  LACTATE DEHYDROGENASE: 112 u/L
  LIPASE: 9.67 u/L
  PHOSPHORUS: 10.23 mg/dL
  POTASSIUM: 5.93 MEQ/L
  SODIUM: 142.37 MEQ/L
  TOTAL BILIRUBIN: 0.1 mg/dL
  TOTAL PROTEIN: 5.3 G/DL
  URIC ACID: 0.53 mg/dL
[2]
  ABSOLUTE BASOPHIL: 0 CELLS/uL
  ABSOLUTE EOSINOPHIL: 29 CELLS/uL
  ABSOLUTE LYMPHOCYTE: 10165.67 CELLS/uL
  ABSOLUTE MONOCYTE: 121.67 CELLS/uL
  ABSOLUTE SEGMENTED NEUTROPHIL: 950.33 CELLS/uL
  BASOPHIL: 0%
  EOSINOPHIL: 0.33%
  ERYTHROCYTE COUNT: 5.81 x10E6/uL
  HEMATOCRIT: 35.97%
  HEMOGLOBIN: 13.7 G/DL
  LEUKOCYTE COUNT: 11.27 x10E3/uL
  LYMPHOCYTE: 90%
  MEAN CORPUSCULAR HEMOGLOBIN: 23.6 pg
  MEAN CORPUSCULAR HEMOGLOBIN CONCENTRATION: 38.1 G/DL
  MEAN CORPUSCULAR VOLUME: 61.93 fL
  MONOCYTE: 1%
  NEUTROPHIL: 8.67%
  NUCLEATED RED BLOOD CELLS: 0.33 /100WBC
  PLATELET COUNT: 1125.33 x10E3/uL
  ALANINE AMINOTRANSFERASE: 50.67 u/L
  ALBUMIN: 4.17 G/DL
  ALKALINE PHOSPHATASE: 370.33 u/L
  ASPARTATE AMINOTRANSFERASE: 84 u/L
  BLOOD UREA NITROGEN: 14.33 mg/dL
  CARBON DIOXIDE: 35 mmol/L
  CHLORIDE: 98.67 MEQ/L
  CHOLESTEROL: 74.33 mg/dL
  CREATINE PHOSPHOKINASE: 385.33 u/L
  CREATININE: 0.18 mg/dL
  GLUCOSE: 178.33 mg/dL
  LACTATE DEHYDROGENASE: 142.67 u/L
  LIPASE: 9 u/L
  PHOSPHORUS: 11.27 mg/dL
  POTASSIUM: 6 MEQ/L
  SODIUM: 143.33 MEQ/L
  TOTAL BILIRUBIN: 0.2 mg/dL
  TOTAL PROTEIN: 5.97 G/DL
  URIC ACID: 0.7 mg/dL
[3]
  ABSOLUTE BASOPHIL: 0 CELLS/uL
  ABSOLUTE EOSINOPHIL: 0 CELLS/uL
  ABSOLUTE LYMPHOCYTE: 6237.33 CELLS/uL
  ABSOLUTE MONOCYTE: 19 CELLS/uL
  ABSOLUTE SEGMENTED NEUTROPHIL: 743.67 CELLS/uL
  BASOPHIL: 0%
  EOSINOPHIL: 0%
  ERYTHROCYTE COUNT: 5.27 x10E6/uL
  HEMATOCRIT: 33.87%
  HEMOGLOBIN: 13.13 G/DL
  LEUKOCYTE COUNT: 7 x10E3/uL
  LYMPHOCYTE: 89.33%
  MEAN CORPUSCULAR HEMOGLOBIN: 24.93 pg
  MEAN CORPUSCULAR HEMOGLOBIN CONCENTRATION: 38.8 G/DL
  MEAN CORPUSCULAR VOLUME: 64.2 fL
  MONOCYTE: 0.33%
  NEUTROPHIL: 10.33%
  NUCLEATED RED BLOOD CELLS: 0.33 /100WBC
  PLATELET COUNT: 1177.67 x10E3/uL
  ALANINE AMINOTRANSFERASE: 59.67 u/L
  ALBUMIN: 3.9 G/DL
  ALKALINE PHOSPHATASE: 382 u/L
  ASPARTATE AMINOTRANSFERASE: 82 u/L
  BLOOD UREA NITROGEN: 17.33 mg/dL
  CARBON DIOXIDE: 32.33 mmol/L
  CHLORIDE: 100 MEQ/L
  CHOLESTEROL: 63.67 mg/dL
  CREATINE PHOSPHOKINASE: 235.67 u/L
  CREATININE: 0.15 mg/dL
  GLUCOSE: 160.67 mg/dL
  LACTATE DEHYDROGENASE: 113.33 u/L
  LIPASE: 9.33 u/L
  PHOSPHORUS: 10.73 mg/dL
  POTASSIUM: 5.04 MEQ/L
  SODIUM: 143.97 MEQ/L
  TOTAL BILIRUBIN: 0.17 mg/dL
  TOTAL PROTEIN: 5.83 G/DL
  URIC ACID: 0.5 mg/dL

Source: ChEMBL document CHEMBL3885881, “DrugMatrix”
